In patent US20130231292A1, “Synergistic anti-proliferation activity of TAS-108 with mTOR inhibitors against cancer cells” (priority 2012, published 2013):
Entries after “also recorded” stand apart in the source; their conditions may differ. Read-outs that look alike come from different tables or passages of the source.

Tests used:
[1] = test system: 60 cancer cell lines of different tissues of origin; experiment: Non-bias 5x4 checkerboard combination screen of TAS108 with 30 chemotherapeutic agents; type: cell-based; set-up: ES: synergistic effect size: scale not given here; conditions: for ES: synergistic effect size: in combination with TAS-108, meta analysis across doses and 60 cell lines; for synergy with TAS-108 across the cell line panel (in words): in combination with TAS-108
From the text: We used 5×4 factorial (checkerboard) design. The combinations were screened against 60 cancer cell lines of different tissues of origin, including melanoma, ovarian, CNS, renal, lung, breast, colon, prostate, and leukemia cancers, represented by cell lines including LOXIMVI, M14,MDAMB468, HT29, NCIH522, HS578T, RPMI8226, HOP92, HL60, OVCAR8, SR, SKMEL2, PC3, HOP62, HCC2998,786O, U251, OVCAR3, NCIH23, T47D, SF295, MOLT4, HCT15, SF539, BT549, SN12C, KM12, ADRRES, A498, NCIH226, NCIH322M, OVCAR5, MALME, OVCAR4, RXF393, SW620, CCRFCEM, UACC62, ACHN, SKOV3, SF268, EKVX, A549, NCIH460, IGROV1, SNB75, UACC257, UO31, HCT116, TK10, K562, SKMEL28, COLO205, SNB19, MDAMB231, DU145, CAKI1, MDAMB435, and MCF7.
After quantifying the degree of synergy for specified doses of compounds within each individual cell line, we used meta analysis to aggregate those effects across doses and the cell line panel (Table 1).

BT549 = experiment: CellTiter-Glo cell viability assay, single agents, three days; type: cell-based; conditions: Homo sapiens, BT-549, 72 h; for GI50: BT549, three days, CellTiter-Glo; for Emax: read-out: Max Inhibition
MDAMB231 = experiment: as above; type: cell-based; conditions: Homo sapiens, MDA-MB-231, 72 h; for Emax: read-out: Max Inhibition; for GI50: MDAMB231, three days, CellTiter-Glo
MDAMB468 = experiment: as above; type: cell-based; conditions: Homo sapiens, MDA-MB-468, 72 h; for Emax: read-out: Max Inhibition; for GI50: MDAMB468, three days, CellTiter-Glo
HS578T = experiment: as above; type: cell-based; conditions: Homo sapiens, Hs-578T, 72 h; for Emax: read-out: Max Inhibition
MCF7 = experiment: as above; type: cell-based; conditions: Homo sapiens; for Emax: read-out: Max Inhibition
T47D = experiment: as above; type: cell-based; conditions: Homo sapiens, 72 h; for Emax: read-out: Max Inhibition
HS 578T = experiment: Combination screen of TAS-108 with a second compound, CellTiter-Glo; conditions: in combination with TAS-108
Protocol: (§1) Cells were treated with compounds alone or in combination for three days and CellTiter-Glo® Luminescent Cell Viability Assay (Promega Corp.) was used as the endpoint to measure cell viability.
(§2) Cells were cultured in RPMI with 10% fetal bovine serum and used between passage 2 and passage 20.
(§3) Other compounds used were purchased from commercial sources (Sigma, AK Scientific). 40 mM Compound stocks in 100% DMSO were made. Master plates were made with Janus (PerkinElmer), then further diluted and added to the cell plates with Matrix Platemate (Thermo) on Day 0.
(§4) CellTiter-Glo® Luminescent Cell Viability Assay (Promega Corp.) was used to measure ATP as an indicator of viable cells on Day 3 using Envision (PerkinElmer) and back up plate reader Analyst HT (MDS) and Gen5 (BioTek).
(§5) Relative Luminescent Units (RLU) were plotted against corresponding drug concentrations and fitted with a standard four parameter sigmoidal curve with custom coded R program. Percentage growth inhibition is calculated as: [(Ti−Tz)/(C−Tz)]×100 for concentrations for which Ti≧Tz and [(Ti−Tz)/Tz]×100 for concentrations for which Ti<Tz.
(§6) Twenty-five doses were tested for each pair of combinations.
(§7) N: no synergistic effect; Y: synergistic effect; y: weak synergistic effect.

[2] = test system: human mammary carcinoma cell lines; experiment: Combination screen of TAS-108 with a second compound, all six breast lines; conditions: number of the six breast cell lines with synergy, in combination with TAS-108
Protocol: as §1, §2, §3, §4, §5, §6, §7

[3] = test system: Tamoxifen-sensitive and Tamoxifen-resistant breast carcinomas; conditions: in vitro and in vivo; cited from earlier work
[4] = test system: breast carcinoma cells with aromatose inhibitor resistant characteristics; conditions: aromatase inhibitor resistant characteristics; cited from earlier work
[5] = compared to Tamoxifen; cited from earlier work
[6] = compared to Tamoxifen; cited from earlier work; remark: listed apart in the source
[7] = Phase II clinical trial; cited from earlier work
[8] = HS578T, three days, CellTiter-Glo, read-out: GI50
[9] = 72 h, MCF7, highest dose tested
[10] = 72 h, MCF7, three days, CellTiter-Glo, read-out: GI50
[11] = three days, CellTiter-Glo, read-out: GI50

## O=C(CCCCCCC(=O)Nc1ccccc1)NO [Vorinostat]
[1]
  ES: synergistic effect size: 0.004

## Cc1ccc(NC(=O)c2ccc(CN3CCN(C)CC3)cc2)cc1Nc1nccc(-c2cccnc2)n1 [Imatinib]
BT549
  GI50: 29 µM
MDAMB231; MDAMB231, highest dose tested
  Emax: 91%
MDAMB231
  GI50: 26 µM

## C#Cc1cccc(Nc2ncnc3cc(OCCOC)c(OCCOC)cc23)c1 [Erlotinib]
MDAMB468; MDAMB468, highest dose tested
  Emax: 34%
MDAMB468
  GI50: 76 µM

## CO[C@H]1C[C@@H]2CC[C@@H](C)[C@@](O)(O2)C(=O)C(=O)N2CCCC[C@H]2C(=O)O[C@H]([C@H](C)C[C@@H]2CC[C@@H](OCCO)[C@H](OC)C2)CC(=O)[C@H](C)/C=C(\C)[C@@H](O)[C@@H](OC)C(=O)[C@H](C)C[C@H](C)/C=C/C=C/C=C/1C [Everolimus]
BT549; BT549, highest dose tested
  Emax: 100%
BT549
  GI50: 5.8 µM
HS578T; HS578T, highest dose tested
  Emax: 41%
HS578T; [8]
  GI50: 0.063 µM
MCF7; [9]
  Emax: 43%
MCF7; [10]
  GI50: 0.17 µM
MDAMB231; MDAMB231, highest dose tested
  Emax: 40%
MDAMB231
  GI50: 54 µM
MDAMB468; MDAMB468, highest dose tested
  Emax: 100%
MDAMB468
  GI50: 0.063 µM
T47D; highest dose tested
  Emax: 49%
T47D; [11]
  GI50: 0.052 µM
[1]
  synergy with TAS-108 across the cell line panel (in words): synergy was consistently found; also recorded: significant synergy
  ES: synergistic effect size: 0.037
HS 578T
  Synergistic effect of TAS 108 paired with compound: Y
[2]
  Synergy #: 6

## O=c1[nH]c(=O)n([C@H]2C[C@H](O)[C@@H](CO)O2)cc1F [Floxuridine]
[1]
  ES: synergistic effect size: −0.016

## C[C@]12CC[C@@H]3c4ccc(O)cc4C[C@@H](CCCCCCCCC[S+]([O-])CCCC(F)(F)C(F)(F)F)[C@H]3[C@@H]1CC[C@@H]2O (stereo partly shown) [Faslodex]
MCF7; [9]
  Emax: 30%
MCF7; [10]
  GI50: 1 µM
T47D; highest dose tested
  Emax: 24%

## Cc1nc(Nc2ncc(C(=O)Nc3c(C)cccc3Cl)s2)cc(N2CCN(CCO)CC2)n1 [Dasatinib]
BT549; BT549, highest dose tested
  Emax: 51%
BT549
  GI50: 0.058 µM
HS578T; HS578T, highest dose tested
  Emax: 79%
HS578T; [8]
  GI50: 0.015 µM
MDAMB231; MDAMB231, highest dose tested
  Emax: 82%
MDAMB231
  GI50: 0.0099 µM
MDAMB468; MDAMB468, highest dose tested
  Emax: 40%
MDAMB468
  GI50: 16 µM
T47D; highest dose tested
  Emax: 37%
T47D; [11]
  GI50: 0.86 µM

## CCCCCOC(=O)Nc1nc(=O)n([C@@H]2O[C@H](C)[C@@H](O)[C@H]2O)cc1F [Capecitabine]
[1]
  ES: synergistic effect size: −0.001

## Nc1ccn([C@@H]2O[C@H](CO)[C@@H](O)[C@@H]2O)c(=O)n1 [Cytarabine]
[1]
  ES: synergistic effect size: −0.008

## C/C=C1\NC(=O)[C@H]2CSSCC/C=C/[C@H](CC(=O)N[C@H](C(C)C)C(=O)N2)OC(=O)[C@H](C(C)C)NC1=O [Romidepsin]
BT549
  Emax: 99.8%
HS578T
  GI50: 0.0003 µM
  Emax: 99.6%
MCF7; MCF7, 72 h
  GI50: 0.00044 µM
  Emax: 94%
MDAMB231
  Emax: 99.9%
MDAMB468
  Emax: 99.8%
T47D
  GI50: 0.0011 µM
  Emax: 96.7%

## Nc1ccn([C@@H]2O[C@H](CO)[C@@H](O)C2(F)F)c(=O)n1 [Gemcitabine]
[1]
  ES: synergistic effect size: −0.007

## CCN(CC)CCNC(=O)c1c(C)[nH]c(/C=C2\C(=O)Nc3ccc(F)cc32)c1C [Sunitinib]
BT549; BT549, highest dose tested
  Emax: 100%
BT549
  GI50: 4.2 µM
HS578T; HS578T, highest dose tested
  Emax: 65%
HS578T; [8]
  GI50: 6.9 µM
MDAMB231; MDAMB231, highest dose tested
  Emax: 99%
MDAMB231
  GI50: 5.6 µM
MDAMB468
  GI50: 21 µM

## CC(=O)O[C@@]12CO[C@@H]1C[C@H](O)[C@@]1(C)C(=O)[C@H](O)C3=C(C)[C@@H](OC(=O)[C@H](O)[C@@H](NC(=O)OC(C)(C)C)c4ccccc4)C[C@@](O)([C@@H](OC(=O)c4ccccc4)[C@H]21)C3(C)C [Docetaxel]
[1]
  synergy with TAS-108 across the cell line panel (in words): synergy was consistently found; also recorded: significant synergy
  ES: synergistic effect size: 0.23

## CC[C@]1(O)C[C@H]2CN(CCc3c([nH]c4ccccc34)[C@@](C(=O)OC)(c3cc4c(cc3OC)N(C=O)[C@H]3[C@@](O)(C(=O)OC)[C@H](OC(C)=O)[C@]5(CC)C=CCN6CC[C@]43[C@@H]65)C2)C1 [Vincristine]
[1]
  ES: synergistic effect size: 0.023

## Cc1cn(-c2cc(NC(=O)c3ccc(C)c(Nc4nccc(-c5cccnc5)n4)c3)cc(C(F)(F)F)c2)cn1 [Nilotinib]
MDAMB231
  GI50: 14 µM

## CCN(CC)Cc1ccc(OCC[C@H]2CC[C@H]3[C@@H]4[C@H](C)Cc5cc(O)ccc5[C@H]4CC[C@]23C)c(OC)c1 [TAS-108, (7α)-21-[4-[(Diethylamino)methyl]-2-methoxyphenoxy]-7-methyl-19-norpregna-1,3,5(10)-trien-3-ol 2-hydroxy-1,2,3-propanetricarboxylate]
BT549; BT549, highest dose tested
  Emax: 100%
BT549
  GI50: 13 µM
HS578T; HS578T, highest dose tested
  Emax: 100%
HS578T; [8]
  GI50: 8.2 µM
MCF7; [9]
  Emax: 99%
MCF7; [10]
  GI50: 10 µM
MDAMB231; MDAMB231, highest dose tested
  Emax: 100%
MDAMB231
  GI50: 9.3 µM
MDAMB468; MDAMB468, highest dose tested
  Emax: 100%
MDAMB468
  GI50: 1.8 µM
T47D; highest dose tested
  Emax: 100%
T47D; [11]
  GI50: 11 µM
[3]
  anti-tumor activity: potent anti-tumor activity
[4]
  growth of breast carcinoma cells: inhibits the growth
[5]
  uterotrophic activity: significantly less uterotrophic activity compared to Tamoxifen
[6]
  bone density: protects against reductions in bone density, similar to Tamoxifen
[7]
  clinical benefit: provided clinical benefits
  tolerability: well tolerated

## CO[C@H]1C[C@@H]2CC[C@@H](C)[C@@](O)(O2)C(=O)C(=O)N2CCCC[C@H]2C(=O)O[C@H]([C@H](C)C[C@@H]2CC[C@@H](O)[C@H](OC)C2)CC(=O)[C@H](C)/C=C(\C)[C@@H](O)[C@@H](OC)C(=O)[C@H](C)C[C@H](C)/C=C/C=C/C=C/1C [Rapamycin]
BT549; BT549, highest dose tested
  Emax: 99%
BT549
  GI50: 0.22 µM
HS578T; HS578T, highest dose tested
  Emax: 41%
HS578T; [8]
  GI50: 1 µM
MCF7; [9]
  Emax: 55%
MCF7; [10]
  GI50: 0.054 µM
MDAMB231; MDAMB231, highest dose tested
  Emax: 95%
MDAMB231
  GI50: 11 µM
MDAMB468; MDAMB468, highest dose tested
  Emax: 100%
MDAMB468
  GI50: 0.063 µM
T47D; highest dose tested
  Emax: 45%
T47D; [11]
  GI50: 0.047 µM

## CCc1c2c(nc3ccc(O)cc13)-c1cc3c(c(=O)n1C2)COC(=O)[C@]3(O)CC [SN38]
[1]
  ES: synergistic effect size: 0.022

## CS(=O)(=O)CCNCc1ccc(-c2ccc3ncnc(Nc4ccc(OCc5cccc(F)c5)c(Cl)c4)c3c2)o1 [Lapatinib]
MDAMB231; MDAMB231, highest dose tested
  Emax: 98%
MDAMB231
  GI50: 14 µM
MDAMB468; MDAMB468, highest dose tested
  Emax: 99%
MDAMB468
  GI50: 1.9 µM
T47D; highest dose tested
  Emax: 31%
T47D; [11]
  GI50: 5.8 µM

## N.N.O=C([O-])C1(C(=O)[O-])CCC1.[Pt+2] [Carboplatin]
[1]
  ES: synergistic effect size: −0.004

## Nc1nc(F)nc2c1ncn2[C@@H]1O[C@H](CO)[C@@H](O)[C@@H]1O [FluroaraA]
[1]
  ES: synergistic effect size: 0.008

## O=C(c1ccc(OCCN2CCCCC2)cc1)c1c(-c2ccc(O)cc2)sc2cc(O)ccc12 [Raloxifene]
MCF7; [9]
  Emax: 27%
MCF7; [10]
  GI50: 25 µM
